Source: ChEMBL document CHEMBL1909496, “Malabaricone C from Myristica cinnamomea exhibits anti-quorum sensing activity” (J Nat Prod, 2011)
Active and inactive are the calls of the source. The calls are words filed in the database; no cut-off is given here.

What was measured:
[1] = test system: Pseudomonas aeruginosa PAO1; experiment: Inhibition of Pseudomonas aeruginosa PAO1 quorum sensing assessed as reduction of biofilm formation at 3 mg/ml after 18 hrs using crystal violet staining
[2] = test system: Pseudomonas aeruginosa PAO1; experiment: Inhibition of Pseudomonas aeruginosa PAO1 quorum sensing assessed as reduction of biofilm formation at 2 mg/ml after 18 hrs using crystal violet staining
[3] = test system: Pseudomonas aeruginosa PAO1; experiment: Inhibition of Pseudomonas aeruginosa PAO1 quorum sensing assessed as reduction of biofilm formation at 1 mg/ml after 18 hrs using crystal violet staining
[4] = test system: Pseudomonas aeruginosa; experiment: Toxicity in Pseudomonas aeruginosa PAO1 quorum sensing assessed as cell viability; type: organism-based
[5] = test system: Chromobacterium violaceum; experiment: Inhibition of Chromobacterium violaceum CV026 quorum sensing assessed as N-3-oxohexanoyl-homoserine lactone-induced violacein production at 3 mg/ml relative to control
[6] = test system: Pseudomonas aeruginosa PAO1; experiment: Inhibition of LuxR-dependent quorum sensing in Pseudomonas aeruginosa PAO1 assessed as inhibition of autoinducer production
[7] = test system: Pseudomonas aeruginosa PAO1; experiment: Inhibition of Pseudomonas aeruginosa PAO1 quorum sensing assessed as inhibition of pycocyanin production at >/= 0.1 mg/ml after overnight incubation

SMILES	inhibition [1]	inhibition [2]	inhibition [3]	Activity [4]	inhibition [5]	inhibition [6]	inhibition [7]
Oc1cc(O)c2c(c1)O[C@H](c1ccc(O)c(O)c1)[C@@H](O)C2	Active	Active	Active	–	–	–	–
O=C(CCCCCCCCc1ccc(O)c(O)c1)c1c(O)cccc1O [MALABARICONE C]	69.4%	63%	44.9%	Non-toxic	Active	inactive	Active
